In ChEMBL document CHEMBL5463723, “Data for DCP probe BIBO3304” (2023):

Key:
Rattus norvegicus [1] = organism: Rattus norvegicus; assay: Inhibitor of CALCINEUPP2B in the Eurofins Panlabs screen (BI) by Radioactive Assay; conditions: Compound concentration 10.0 uM
Mus musculus = organism: Mus musculus; assay: Inhibitor of PHORBOLE/M in the Eurofins Panlabs screen (BI) by Radioactive Assay; conditions: Compound concentration 10.0 uM
[2] = target: Neuropeptide Y receptor type 2 (Oryctolagus cuniculus) (UniProt G1TSD5); assay: Activity against Y2/RB in the Eurofins Panlabs screen (BI) by Radioactive Assay; conditions: Compound concentration 10.0 uM
Sequence of Neuropeptide Y receptor type 2 (Oryctolagus cuniculus) (G1TSD5 as listed by the source): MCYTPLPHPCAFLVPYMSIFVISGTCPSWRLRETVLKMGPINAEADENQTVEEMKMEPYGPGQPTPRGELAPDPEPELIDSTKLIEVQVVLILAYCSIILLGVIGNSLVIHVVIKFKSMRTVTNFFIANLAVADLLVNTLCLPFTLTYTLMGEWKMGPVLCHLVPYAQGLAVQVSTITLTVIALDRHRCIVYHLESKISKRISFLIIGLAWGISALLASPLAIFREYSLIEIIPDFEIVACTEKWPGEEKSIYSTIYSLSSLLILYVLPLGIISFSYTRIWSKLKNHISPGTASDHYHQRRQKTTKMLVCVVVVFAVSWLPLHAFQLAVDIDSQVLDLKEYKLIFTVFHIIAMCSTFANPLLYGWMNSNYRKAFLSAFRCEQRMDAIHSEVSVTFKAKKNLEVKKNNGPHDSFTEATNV

[3] = target: Mu-type opioid receptor (Cavia porcellus) (UniProt P97266); assay: Activity against MU/GP in the Eurofins Panlabs screen (BI) by Radioactive Assay; conditions: Compound concentration 10.0 uM
Sequence of Mu-type opioid receptor (Cavia porcellus) (P97266 whole entry): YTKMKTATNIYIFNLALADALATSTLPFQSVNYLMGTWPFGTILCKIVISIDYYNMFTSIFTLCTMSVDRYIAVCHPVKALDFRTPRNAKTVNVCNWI

[4] = target: Glucocorticoid receptor (Homo sapiens) (UniProt P04150); assay: Activity against GCORTIC/H in the Eurofins Panlabs screen (BI) by Radioactive Assay; conditions: Compound concentration 10.0 uM
Sequence of Glucocorticoid receptor (Homo sapiens) (P04150 whole entry): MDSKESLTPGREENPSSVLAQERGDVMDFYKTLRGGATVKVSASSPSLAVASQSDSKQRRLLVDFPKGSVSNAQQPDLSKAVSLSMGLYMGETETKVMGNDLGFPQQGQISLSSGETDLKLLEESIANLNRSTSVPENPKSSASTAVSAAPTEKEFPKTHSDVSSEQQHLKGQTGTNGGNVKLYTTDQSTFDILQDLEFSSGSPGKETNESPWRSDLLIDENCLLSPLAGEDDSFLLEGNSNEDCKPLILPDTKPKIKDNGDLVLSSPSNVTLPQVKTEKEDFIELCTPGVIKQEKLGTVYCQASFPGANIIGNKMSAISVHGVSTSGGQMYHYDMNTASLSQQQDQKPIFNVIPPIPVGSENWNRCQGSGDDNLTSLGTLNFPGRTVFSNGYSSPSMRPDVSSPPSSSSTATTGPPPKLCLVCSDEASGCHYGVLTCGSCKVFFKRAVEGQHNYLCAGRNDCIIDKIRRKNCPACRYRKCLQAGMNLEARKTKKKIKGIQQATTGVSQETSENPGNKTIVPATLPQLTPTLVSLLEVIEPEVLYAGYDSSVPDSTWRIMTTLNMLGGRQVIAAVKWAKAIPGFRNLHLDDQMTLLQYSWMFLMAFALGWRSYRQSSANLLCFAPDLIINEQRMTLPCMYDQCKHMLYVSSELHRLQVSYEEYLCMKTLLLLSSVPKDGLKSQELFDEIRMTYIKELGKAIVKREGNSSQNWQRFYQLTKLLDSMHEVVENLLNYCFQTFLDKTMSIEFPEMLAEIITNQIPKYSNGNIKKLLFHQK

[5] = target: Potassium voltage-gated channel subfamily V member 1 (Rattus norvegicus) (UniProt P97557); assay: Activity against K+/KV/R in the Eurofins Panlabs screen (BI) by Radioactive Assay; conditions: Compound concentration 10.0 uM
Sequence of Potassium voltage-gated channel subfamily V member 1 (Rattus norvegicus) (P97557 whole entry): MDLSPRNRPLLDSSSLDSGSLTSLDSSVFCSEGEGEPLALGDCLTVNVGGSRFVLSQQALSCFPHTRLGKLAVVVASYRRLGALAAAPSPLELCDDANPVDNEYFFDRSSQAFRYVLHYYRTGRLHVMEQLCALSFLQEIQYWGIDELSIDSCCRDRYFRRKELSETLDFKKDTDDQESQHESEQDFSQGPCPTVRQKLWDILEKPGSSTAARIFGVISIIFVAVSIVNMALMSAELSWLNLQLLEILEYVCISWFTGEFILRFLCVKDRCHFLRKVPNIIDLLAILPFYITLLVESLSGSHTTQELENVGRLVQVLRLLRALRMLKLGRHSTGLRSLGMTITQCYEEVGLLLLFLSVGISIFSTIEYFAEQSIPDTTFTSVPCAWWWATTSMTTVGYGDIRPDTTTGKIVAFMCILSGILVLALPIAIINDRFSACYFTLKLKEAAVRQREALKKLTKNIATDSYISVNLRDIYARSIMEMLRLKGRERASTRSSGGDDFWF

[6] = target: Muscarinic acetylcholine receptor (Rattus norvegicus) (UniProt P08482+P08483+P08485+P08911+P10980); assay: Activity against MUSCARIN/NS in the Eurofins Panlabs screen (BI) by Radioactive Assay; assay type: protein assay; conditions: Compound concentration 10.0 uM
[7] = target: D(3) dopamine receptor (Homo sapiens) (UniProt P35462); assay: Activity against D3/HU in the Eurofins Panlabs screen (BI) by Scintillation counting; conditions: Compound concentration 10.0 uM
Sequence of D(3) dopamine receptor (Homo sapiens) (P35462 whole entry): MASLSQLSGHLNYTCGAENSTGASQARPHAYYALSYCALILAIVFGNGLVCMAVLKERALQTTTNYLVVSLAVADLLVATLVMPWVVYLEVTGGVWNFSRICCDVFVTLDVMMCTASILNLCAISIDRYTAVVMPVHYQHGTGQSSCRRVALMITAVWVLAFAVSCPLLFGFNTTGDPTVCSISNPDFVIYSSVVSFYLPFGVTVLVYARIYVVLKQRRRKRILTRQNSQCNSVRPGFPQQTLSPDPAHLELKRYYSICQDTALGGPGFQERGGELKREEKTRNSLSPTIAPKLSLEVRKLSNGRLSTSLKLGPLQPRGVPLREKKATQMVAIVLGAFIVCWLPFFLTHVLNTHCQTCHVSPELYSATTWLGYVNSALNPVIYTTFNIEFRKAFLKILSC

Rattus norvegicus [8] = organism: Rattus norvegicus; assay: Activity against BZD/CENTR/R in the Eurofins Cerep SafetyScreen44 (BI) by Radioactive Assay (Cerep_28); assay type: protein-complex assay; conditions: Compound concentration 10.0 uM
[9] = target: Muscarinic acetylcholine receptor M3 (Rattus norvegicus) (UniProt P08483); assay: Activity against M3/R in the Eurofins Panlabs screen (BI) by Radioactive Assay; conditions: Compound concentration 10.0 uM
[10] = target: Cholecystokinin receptor type A (Rattus norvegicus) (UniProt P30551); assay: Activity against CCKA/R in the Eurofins Panlabs screen (BI) by Radioactive Assay; conditions: Compound concentration 10.0 uM
[11] = target: 5-hydroxytryptamine receptor 2B (Homo sapiens) (UniProt P41595); assay: 5-HT2B Eurofins-Cerep binding assay; conditions: Compound concentration 10.0 uM
[12] = target: 5-hydroxytryptamine receptor 2A (Homo sapiens) (UniProt P28223); assay: Agonist activity in the Eurofins Cerep SafetyScreen44 (BI) against 5HT2AH_AGON by Scintillation counting (Cerep_471); conditions: Compound concentration 10.0 uM
Sequence of 5-hydroxytryptamine receptor 2A (Homo sapiens) (P28223 whole entry): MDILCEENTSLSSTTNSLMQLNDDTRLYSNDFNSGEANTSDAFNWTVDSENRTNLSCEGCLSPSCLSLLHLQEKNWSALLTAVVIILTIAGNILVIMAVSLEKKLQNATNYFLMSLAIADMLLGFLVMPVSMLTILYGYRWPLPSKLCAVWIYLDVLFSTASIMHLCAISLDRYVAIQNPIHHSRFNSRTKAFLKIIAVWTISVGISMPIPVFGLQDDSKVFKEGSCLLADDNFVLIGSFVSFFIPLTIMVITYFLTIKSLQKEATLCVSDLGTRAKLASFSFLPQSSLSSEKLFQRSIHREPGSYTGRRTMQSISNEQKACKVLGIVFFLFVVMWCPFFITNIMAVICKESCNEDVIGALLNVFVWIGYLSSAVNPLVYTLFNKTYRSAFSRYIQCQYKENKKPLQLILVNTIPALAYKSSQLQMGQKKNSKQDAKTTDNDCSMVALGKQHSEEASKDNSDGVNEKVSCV

[13] = target: Alpha-2B adrenergic receptor (Rattus norvegicus) (UniProt P19328); assay: Activity against ALPHA2B/R in the Eurofins Panlabs screen (BI); conditions: Compound concentration 10.0 uM
[14] = target: Protein kinase C alpha type (Homo sapiens) (UniProt P17252); assay: Inhibitor of PKCALPHA in the Eurofins Panlabs screen (BI) by Radioactive Assay; conditions: Compound concentration 10.0 uM
Cavia porcellus = organism: Cavia porcellus; assay: Activity against ANF/GP in the Eurofins Panlabs screen (BI) by Radioactive Assay; conditions: Compound concentration 10.0 uM
[15] = target: Alpha-1D adrenergic receptor (Rattus norvegicus) (UniProt P23944); assay: Activity against ALPHA1/R in the Eurofins Panlabs screen (BI) by Others; conditions: Compound concentration 10.0 uM
Sequence of Alpha-1D adrenergic receptor (Rattus norvegicus) (P23944 whole entry): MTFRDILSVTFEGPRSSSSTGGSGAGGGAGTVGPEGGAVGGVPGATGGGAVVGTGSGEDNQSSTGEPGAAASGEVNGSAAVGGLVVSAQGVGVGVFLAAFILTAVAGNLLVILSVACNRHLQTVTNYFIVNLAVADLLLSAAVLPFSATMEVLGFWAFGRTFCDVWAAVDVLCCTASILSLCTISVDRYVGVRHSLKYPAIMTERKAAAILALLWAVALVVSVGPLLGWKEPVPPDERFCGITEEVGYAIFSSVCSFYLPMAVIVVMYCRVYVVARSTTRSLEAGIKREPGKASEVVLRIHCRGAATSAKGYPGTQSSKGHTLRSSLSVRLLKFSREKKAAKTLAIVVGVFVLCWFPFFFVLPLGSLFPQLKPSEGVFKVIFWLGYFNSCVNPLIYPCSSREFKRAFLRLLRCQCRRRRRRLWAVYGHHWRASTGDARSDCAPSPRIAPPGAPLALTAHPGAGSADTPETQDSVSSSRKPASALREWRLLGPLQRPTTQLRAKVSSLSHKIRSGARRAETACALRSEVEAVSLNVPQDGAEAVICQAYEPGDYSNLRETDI

[16] = target: Angiotensin-converting enzyme (Homo sapiens) (UniProt P12821); assay: Activity against ACE(HU_AMTCH400) in the Eurofins Cerep SafetyScreen44 (BI) by Photometry (Cerep_3441); conditions: Compound concentration 10.0 uM
[17] = target: D(1A) dopamine receptor (Rattus norvegicus) (UniProt P18901); assay: Activity against D1/R in the Eurofins Panlabs screen (BI) by Radioactive Assay; conditions: Compound concentration 10.0 uM
[18] = target: D(2) dopamine receptor (Rattus norvegicus) (UniProt P61169); assay: Activity against D2/RAC/R in the Eurofins Panlabs screen (BI); conditions: Compound concentration 10.0 uM
Sequence of D(2) dopamine receptor (Rattus norvegicus) (P61169 whole entry): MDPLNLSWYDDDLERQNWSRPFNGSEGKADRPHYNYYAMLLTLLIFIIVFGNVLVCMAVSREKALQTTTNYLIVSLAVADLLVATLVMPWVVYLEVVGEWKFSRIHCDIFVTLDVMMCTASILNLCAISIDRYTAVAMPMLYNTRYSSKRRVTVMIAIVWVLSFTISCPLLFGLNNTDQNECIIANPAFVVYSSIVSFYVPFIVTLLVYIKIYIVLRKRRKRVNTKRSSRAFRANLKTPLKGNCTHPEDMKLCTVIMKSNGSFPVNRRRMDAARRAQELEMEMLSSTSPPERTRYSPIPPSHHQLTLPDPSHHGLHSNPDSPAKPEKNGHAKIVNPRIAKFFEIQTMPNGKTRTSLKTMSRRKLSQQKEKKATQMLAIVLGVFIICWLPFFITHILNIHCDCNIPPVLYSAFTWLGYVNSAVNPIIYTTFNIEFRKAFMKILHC

[19] = target: Glutamate receptor ionotropic, kainate 1 (Rattus norvegicus) (UniProt P22756); assay: Activity against KAINATE/R in the Eurofins Panlabs screen (BI) by Radioactive Assay; conditions: Compound concentration 10.0 uM
[20] = target: Muscarinic acetylcholine receptor M2 (Homo sapiens) (UniProt P08172); assay: M2 Eurofins-Cerep binding assay; set-up: ligand concentration 2 nM; conditions: Compound concentration 10.0 uM
[21] = target: Progesterone receptor (Bos taurus) (UniProt Q690N0); assay: Activity against PROGEST/BO in the Eurofins Panlabs screen (BI) by Radioactive Assay; conditions: Compound concentration 10.0 uM
[22] = target: Beta-2 adrenergic receptor (Homo sapiens) (UniProt P07550); assay: beta 2 Eurofins-Cerep binding assay; conditions: Compound concentration 10.0 uM
Oryctolagus cuniculus = organism: Oryctolagus cuniculus; assay: Activity against 5HT3/RB in the Eurofins Panlabs screen (BI) by Radioactive Assay; conditions: Compound concentration 10.0 uM
[23] = target: Nitric oxide synthase 3 (Rattus norvegicus) (UniProt Q62600); assay: Inhibitor of CNOS in the Eurofins Panlabs screen (BI) by Radioactive Assay; conditions: Compound concentration 10.0 uM
[24] = target: Interleukin-6 receptor subunit alpha (Homo sapiens) (UniProt P08887); assay: Activity against IL-6/H in the Eurofins Panlabs screen (BI) by SPA - blue shifted; conditions: Compound concentration 10.0 uM
Rattus norvegicus [25] = organism: Rattus norvegicus; assay: KV channel Eurofins-Cerep binding assay; set-up: ligand concentration 0.01 nM; conditions: Compound concentration 10.0 uM
[26] = target: Mu-type opioid receptor (Homo sapiens) (UniProt P35372); assay: mu (MOP) Eurofins-Cerep binding assay; set-up: ligand concentration 0.5 nM; conditions: Compound concentration 10.0 uM
Sequence of Mu-type opioid receptor (Homo sapiens) (P35372 whole entry): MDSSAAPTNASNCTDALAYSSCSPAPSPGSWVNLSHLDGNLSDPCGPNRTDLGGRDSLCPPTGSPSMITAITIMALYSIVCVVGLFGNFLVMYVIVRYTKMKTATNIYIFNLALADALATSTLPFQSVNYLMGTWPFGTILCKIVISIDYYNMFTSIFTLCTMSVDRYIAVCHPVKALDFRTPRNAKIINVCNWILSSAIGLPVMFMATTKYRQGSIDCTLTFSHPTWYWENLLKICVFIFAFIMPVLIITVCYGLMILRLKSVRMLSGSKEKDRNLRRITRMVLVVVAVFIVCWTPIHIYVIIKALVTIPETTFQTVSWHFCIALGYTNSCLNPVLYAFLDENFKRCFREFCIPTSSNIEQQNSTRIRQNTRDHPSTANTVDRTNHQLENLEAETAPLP

[27] = target: cGMP-inhibited 3',5'-cyclic phosphodiesterase 3A (Homo sapiens) (UniProt Q14432); assay: Inhibitor of PDE3A in the Eurofins Cerep SafetyScreen44 (BI) by HTRF-homogeneous time resolved fluoresce (Cerep_4072); conditions: Compound concentration 10.0 uM
[28] = target: L-type calcium channel (dihydropyridine site), Cav1.2 alpha-1C (Rattus norvegicus, UniProt P22002); assay: Inhibitor of CA+/DHPSI/R in the Eurofins Cerep SafetyScreen44 (BI) by Radioactive Assay (Cerep_161); assay type: protein assay; set-up: scale not given: the % may be the effect or the level left; conditions: rat brain, probe [3H](+)PN200-110, compound concentration 10 uM, read-out: % Ctrl
[29] = target: Metabotropic glutamate receptor (Rattus norvegicus) (UniProt P31424+P70579+P31423+P31421+P31422+P35349+P35400+P23385); assay: Activity against GLUTAMAT/R in the Eurofins Panlabs screen (BI) by Radioactive Assay; assay type: protein assay; conditions: Compound concentration 10.0 uM
[30] = target: Alpha-1B adrenergic receptor (Homo sapiens) (UniProt P35368); assay: Activity against ALPHA1B/R in the Eurofins Panlabs screen (BI) by Radioactive Assay; conditions: Rattus norvegicus; Compound concentration 10.0 uM
Sequence of Alpha-1B adrenergic receptor (Homo sapiens) (P35368 whole entry): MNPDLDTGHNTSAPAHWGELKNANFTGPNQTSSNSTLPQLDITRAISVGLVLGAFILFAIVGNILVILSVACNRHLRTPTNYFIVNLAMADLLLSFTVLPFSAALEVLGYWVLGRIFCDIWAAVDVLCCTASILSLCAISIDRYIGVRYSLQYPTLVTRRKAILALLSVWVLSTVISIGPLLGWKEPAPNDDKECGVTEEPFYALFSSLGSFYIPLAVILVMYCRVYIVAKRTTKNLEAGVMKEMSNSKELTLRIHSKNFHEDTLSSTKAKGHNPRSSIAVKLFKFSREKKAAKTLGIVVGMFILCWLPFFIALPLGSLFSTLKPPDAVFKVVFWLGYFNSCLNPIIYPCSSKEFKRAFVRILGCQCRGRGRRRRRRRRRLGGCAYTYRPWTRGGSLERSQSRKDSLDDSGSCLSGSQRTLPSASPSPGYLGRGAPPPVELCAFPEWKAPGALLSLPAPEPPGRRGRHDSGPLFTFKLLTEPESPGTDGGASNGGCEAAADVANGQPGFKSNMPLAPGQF

[31] = target: B2 bradykinin receptor (Cavia porcellus) (UniProt O70526); assay: Activity against B2/GP in the Eurofins Panlabs screen (BI) by Radioactive Assay; conditions: Compound concentration 10.0 uM
Sequence of B2 bradykinin receptor (Cavia porcellus) (O70526 whole entry): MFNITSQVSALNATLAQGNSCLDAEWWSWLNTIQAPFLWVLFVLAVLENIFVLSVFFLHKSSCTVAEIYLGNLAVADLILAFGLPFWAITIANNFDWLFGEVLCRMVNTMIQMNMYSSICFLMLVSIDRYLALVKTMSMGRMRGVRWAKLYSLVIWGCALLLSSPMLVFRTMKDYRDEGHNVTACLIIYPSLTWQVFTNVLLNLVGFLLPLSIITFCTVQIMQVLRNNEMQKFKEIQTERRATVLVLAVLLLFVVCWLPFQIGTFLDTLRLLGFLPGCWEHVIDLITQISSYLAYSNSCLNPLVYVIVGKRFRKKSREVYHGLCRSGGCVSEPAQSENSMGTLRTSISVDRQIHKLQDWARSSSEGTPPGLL

[32] = target: D(1A) dopamine receptor (Homo sapiens) (UniProt P21728); assay: Activity against D1/HU in the Eurofins Panlabs screen (BI) by Radioactive Assay; conditions: Compound concentration 10.0 uM
MAO-A = MAO-A (Homo sapiens, UniProt P21397); assay: Agonist activity in the Eurofins Cerep SafetyScreen44 (BI) against MAO-A_ANTAG by Scintillation counting (Cerep_443); set-up: scale not given: the % may be the effect or the level left; conditions: rat; compound concentration 10 uM; target entry is the homologue from another species; read-out: % Ctrl
[33] = target: Glycine receptor (Rattus norvegicus) (UniProt P22771+P24524+P07727+P20781); assay: Activity against GLYCINSTRS in the Eurofins Panlabs screen (BI) by Radioactive Assay; assay type: protein-complex assay; conditions: Compound concentration 10.0 uM
[34] = target: Tyrosine-protein kinase Lck (Homo sapiens) (UniProt P06239); assay: Inhibitor of P56TYRKINLCK in the Eurofins Panlabs screen (BI) by FI - fluorescence intensity; conditions: Compound concentration 10.0 uM

Compound: N=C(N)NCCC[C@@H](NC(=O)C(c1ccccc1)c1ccccc1)C(=O)NCc1ccc(CNC(N)=O)cc1
- residual activity (Rattus norvegicus [1]): 90%
- residual activity (Mus musculus): 95%
- residual activity [2]: 62%
- residual activity [3]: 104%
- residual activity [4]: 86%
- residual activity [5]: 89%
- residual activity [6]: 87%
- residual activity [7]: 98%
- residual activity (Rattus norvegicus [8]): 83%
- residual activity [9]: 85%
- residual activity [10]: 87%
- residual activity [11]: 57%
- residual activity [12]: 60%
- residual activity [13]: 91%
- residual activity [14]: 80%
- residual activity (Cavia porcellus): 97%
- residual activity [15]: 91%
- residual activity [16]: 103%
- residual activity [17]: 103%
- residual activity [18]: 84%
- residual activity [19]: 103%
- residual activity [20]: 90%
- residual activity [21]: 114%
- residual activity [22]: 108%
- residual activity (Oryctolagus cuniculus): 99%
- residual activity [23]: 104%
- residual activity [24]: 87%
- residual activity (Rattus norvegicus [25]): 100%
- residual activity [26]: 71%
- residual activity [27]: 84%
- activity at 10 µM [28]: 70% (not active)
- residual activity [29]: 95%
- residual activity [30]: 114%
- residual activity [31]: 115%
- residual activity [32]: 95%
- activity at 10 µM (MAO-A): 97% (not active)
- residual activity [33]: 81%
- residual activity [34]: 97%
